The results in this text go back to patent US8722687B2, “Imidazo [1,2-A]pyridine derivatives as FGFR kinase inhibitors for use in therapy” (Astex Therapeutics Ltd, priority 2009, dated 2014).

In general, IC50 refers to the concentration that inhibits the measured activity by half.

pIC50: −log10 of the molar value.

One experiment deals with T1, VEGFR2 (Homo sapiens, UniProt P35968).
T1 construct: purchased Upstate
In words: VEGFR2 in vitro kinase inhibitory activity assay. The note with it: read-out: VEGFR2 IC50(μM) or % I. The experiment is classed as biochemical.

The target of the next experiment is T2, Ba/F3-TEL-FGFR3 cells (Homo sapiens, UniProt P22607).
T2 construct: fused on or other part: TEL (ETV6) N-terminal oligomerising part fused to the FGFR3 kinase part; P41212 (Transcription factor ETV6)
T2 sequence (P22607 whole entry, change not shown, the tested form may be a part): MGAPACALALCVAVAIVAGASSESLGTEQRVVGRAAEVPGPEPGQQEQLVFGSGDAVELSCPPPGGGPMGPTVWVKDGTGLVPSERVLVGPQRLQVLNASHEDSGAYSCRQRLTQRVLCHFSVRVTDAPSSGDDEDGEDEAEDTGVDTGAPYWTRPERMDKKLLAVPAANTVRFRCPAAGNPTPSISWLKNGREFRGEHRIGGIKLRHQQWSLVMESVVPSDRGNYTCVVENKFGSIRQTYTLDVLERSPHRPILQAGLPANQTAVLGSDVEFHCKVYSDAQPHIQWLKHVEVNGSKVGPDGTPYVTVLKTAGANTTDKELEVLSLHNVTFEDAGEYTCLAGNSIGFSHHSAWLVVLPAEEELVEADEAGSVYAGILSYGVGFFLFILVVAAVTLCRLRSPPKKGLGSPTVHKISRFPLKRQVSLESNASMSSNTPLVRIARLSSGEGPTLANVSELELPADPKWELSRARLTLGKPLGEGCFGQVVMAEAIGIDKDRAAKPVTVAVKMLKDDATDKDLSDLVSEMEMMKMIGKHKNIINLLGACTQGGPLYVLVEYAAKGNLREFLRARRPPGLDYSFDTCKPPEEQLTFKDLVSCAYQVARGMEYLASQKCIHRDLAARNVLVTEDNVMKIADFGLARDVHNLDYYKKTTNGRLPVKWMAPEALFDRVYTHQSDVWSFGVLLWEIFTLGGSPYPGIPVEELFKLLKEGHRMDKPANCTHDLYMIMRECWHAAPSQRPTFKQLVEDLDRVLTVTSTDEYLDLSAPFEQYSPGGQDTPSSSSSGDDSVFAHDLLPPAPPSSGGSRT
In words: Ba/F3-TEL-FGFR3 cell proliferation assay (Alamar Blue). The experiment is classed as cell-based, murine. The conditions noted are these: for GI50: 72 hours, read-out: BaF3-TEL-FGFR3 prolif. The essentials: (§1)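 Ba/F3-TEL-FGFR3 cells (5×10^3/well, G418) and parental Ba/F3 (2.5×10^3/well, 2 ng/ml mouse IL-3) in RPMI/10% FBS, plated overnight, then compound for 72 h at 0.1% DMSO final. Alamar Blue 4-6 h, fluorescence 535/590 nm; IC50 where inhibition high.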
In general terms: Alamar Blue is a resazurin reagent that responds to reducing activity.

Experiment [1] relates to parental wild-type Ba/F3 cells. In words: Ba/F3 (WT) cell proliferation assay (Alamar Blue). The conditions noted are these: read-out: BaF3 WT prolif; for inhibition at 3 µM / inhibition at 10 µM: Mus musculus, BaF3, 72 h; for pIC50: BaF3, 72 hours, with mouse IL-3. Type of experiment: cell-based, murine. In a few lines:
as §1

In experiment [2] the test system is human prostate cancer PC3 cells. The experiment is described as follows: EB1 cellular assay (Eb1 Comet assay, microtubule disruption). Type of experiment: cell-based. The note with it: PC-3, lowest active concentration: Eb1 foci absent in at least 50% of treated PC3 cells, 1 hour, read-out: Eb1 LAC. As to the method:
The Eb1 Comet assay relies on the detection of the Eb1 protein at the plus end of polymerizing microtubules (Mimori-Kiyosue, 2000) using indirect immunofluorescence. Disruption of microtubule dynamics through de-polymerization or stabilization results in a de-localization of Eb1 from the growing microtubule ends and this is visualized by the disappearance of Eb1 containing cytoplasmic foci.
Briefly, human prostate cancer PC3 cells obtained from the American Type Culture Collection were grown in 96-well plates (Greiner, cat. no. 655090) in HAM's F12 medium as recommended by the provider (ATCC). The cells were treated for 1 hour at 37° C. with compounds dissolved in DMSO (0.6% final DMSO concentration). The culture medium was then removed by aspiration and the cells were fixed by adding cold methanol (−20° C.). After a 15 minutes incubation at −20° C., the cells were washed twice with DPBS (Gibco) containing 0.5% Triton X-100. Mouse Eb1 antibody (BD Transduction Laboratories, cat. no. 610534) was added to the cells (1/250 dilution in DPBS containing 1% BSA) and incubated overnight at room temperature. The antibody was subsequently removed and the cells washed twice with DPBS, 0.5% Triton X-100. Secondary goat anti-mouse antibody conjugated to Alexa 488 fluorescent dye (Molecular Probes) was added at a 1/500 dilution in DPBS, 1% BSA and incubated for 1 hour at 37° C. The cells were washed twice with DPBS, 0.5% Triton X-100 and then DPBS containing 0.5% Triton X-100 and 1/5000 Hoechst 33342 (Molecular Probes) was added. Microscopy based Eb1 foci visualization was carried out using an IN Cell Analyser 1000 (Amersham Biosciences) using a 20× objective. Compound dependent microtubule disruption was visually determined by the disappearance in Eb1 foci. The lowest active concentration (LAC) was determined as the concentration where Eb1 foci were absent in at least 50% of the treated cells. Herein the effects of test compounds are expressed as pLAC (the negative log value of the LAC-value)

Another experiment deals with T3, FGFR3 (Homo sapiens, UniProt P22607).
T3 construct: purchased Upstate
T3 sequence (P22607 23-806): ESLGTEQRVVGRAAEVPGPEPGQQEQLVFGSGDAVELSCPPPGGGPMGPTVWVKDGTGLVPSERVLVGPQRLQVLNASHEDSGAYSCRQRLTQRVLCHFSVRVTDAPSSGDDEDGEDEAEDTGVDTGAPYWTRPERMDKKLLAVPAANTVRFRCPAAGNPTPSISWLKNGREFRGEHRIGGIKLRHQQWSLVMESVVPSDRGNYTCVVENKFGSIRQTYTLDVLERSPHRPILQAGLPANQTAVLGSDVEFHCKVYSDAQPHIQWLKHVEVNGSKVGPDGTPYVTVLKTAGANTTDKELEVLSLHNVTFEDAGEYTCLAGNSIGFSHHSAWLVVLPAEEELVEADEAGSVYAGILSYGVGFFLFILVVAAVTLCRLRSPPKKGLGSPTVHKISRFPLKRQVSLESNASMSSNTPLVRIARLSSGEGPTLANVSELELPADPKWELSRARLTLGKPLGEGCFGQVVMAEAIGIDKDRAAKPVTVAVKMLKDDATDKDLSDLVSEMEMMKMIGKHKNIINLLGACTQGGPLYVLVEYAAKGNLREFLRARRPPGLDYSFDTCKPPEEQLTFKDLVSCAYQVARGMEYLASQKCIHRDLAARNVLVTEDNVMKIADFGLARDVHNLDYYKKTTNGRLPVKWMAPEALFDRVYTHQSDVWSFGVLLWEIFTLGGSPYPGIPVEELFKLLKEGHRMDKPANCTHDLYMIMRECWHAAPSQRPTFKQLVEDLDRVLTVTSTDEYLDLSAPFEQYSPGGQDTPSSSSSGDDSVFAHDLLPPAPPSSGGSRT
The experiment is described as follows: FGFR3 in vitro kinase inhibitory activity assay. Type of experiment: biochemical. The conditions noted are these: for IC50: read-out: FGFR3 IC50(μM) or % I.

T1 sequence (P35968 20-1356): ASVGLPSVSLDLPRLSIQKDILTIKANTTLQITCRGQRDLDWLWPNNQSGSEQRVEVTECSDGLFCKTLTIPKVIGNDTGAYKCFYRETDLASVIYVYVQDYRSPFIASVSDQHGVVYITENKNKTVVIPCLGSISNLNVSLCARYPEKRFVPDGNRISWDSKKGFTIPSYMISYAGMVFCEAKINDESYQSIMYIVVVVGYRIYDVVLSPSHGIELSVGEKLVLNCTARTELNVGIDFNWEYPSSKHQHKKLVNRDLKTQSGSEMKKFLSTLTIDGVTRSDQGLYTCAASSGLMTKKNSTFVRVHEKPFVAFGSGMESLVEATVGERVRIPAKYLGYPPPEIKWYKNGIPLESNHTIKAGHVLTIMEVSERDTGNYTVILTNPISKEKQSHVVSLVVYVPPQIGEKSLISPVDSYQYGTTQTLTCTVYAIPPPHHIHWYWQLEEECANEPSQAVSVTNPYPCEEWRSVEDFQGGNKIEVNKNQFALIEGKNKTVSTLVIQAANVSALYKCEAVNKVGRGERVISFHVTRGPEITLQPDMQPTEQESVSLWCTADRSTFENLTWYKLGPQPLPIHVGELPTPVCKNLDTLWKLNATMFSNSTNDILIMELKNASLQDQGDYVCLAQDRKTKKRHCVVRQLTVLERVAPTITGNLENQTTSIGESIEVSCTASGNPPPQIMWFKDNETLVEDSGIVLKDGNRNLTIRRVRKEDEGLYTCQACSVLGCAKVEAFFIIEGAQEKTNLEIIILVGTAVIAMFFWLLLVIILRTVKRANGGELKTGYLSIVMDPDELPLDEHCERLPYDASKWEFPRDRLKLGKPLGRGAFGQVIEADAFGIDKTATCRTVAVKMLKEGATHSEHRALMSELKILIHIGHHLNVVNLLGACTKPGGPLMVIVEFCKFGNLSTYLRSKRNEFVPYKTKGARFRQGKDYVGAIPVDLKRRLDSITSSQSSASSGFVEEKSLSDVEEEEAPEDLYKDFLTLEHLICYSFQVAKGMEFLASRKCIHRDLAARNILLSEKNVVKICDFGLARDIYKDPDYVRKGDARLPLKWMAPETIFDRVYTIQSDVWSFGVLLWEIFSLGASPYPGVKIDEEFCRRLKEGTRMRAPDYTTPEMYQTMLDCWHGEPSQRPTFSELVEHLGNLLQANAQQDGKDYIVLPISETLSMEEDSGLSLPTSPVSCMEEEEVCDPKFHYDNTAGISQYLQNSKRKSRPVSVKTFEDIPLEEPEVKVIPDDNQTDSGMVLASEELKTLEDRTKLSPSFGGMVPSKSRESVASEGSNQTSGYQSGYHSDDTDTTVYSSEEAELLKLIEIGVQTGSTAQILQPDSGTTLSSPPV

As to `COCc1cc(NC(=O)NCC(F)(F)F)cc(-c2cnc3cc(-c4ccnc(C(F)(F)F)n4)ccn23)c1` [Compound F-9, 1-{3-Methoxymethyl-5-[7-(2-trifluormethyl-pyrimidin-4-yl)-imidazo[1,2-a]pyridin-3-yl]-phenyl}-3-(2,2,2-trifluoro-ethyl)-urea], the IC50 on VEGFR2 is 0.057 µM; at FGFR3, 0.0093 µM. Further, the GI50 on Ba/F3-TEL-FGFR3 cells was found to be 240 nM. The inhibition at 3 µM in experiment [1] amounted to 17%. The minimal effective concentration in experiment [2] is 2 µM.

Turning to `Cc1nc(N)cc(-c2ccn3c(-c4cc(NC(=O)NCC(F)(F)F)cc(OC(C)C)c4)cnc3c2)n1` [Compound F-4, 1-{3-[7-(6-Amino-2-methyl-pyrimidin-4-yl)-imidazo[1,2-a]pyridin-3-yl]-5-isopropoxy-phenyl}-3-(2,2,2-trifluoro-ethyl)-urea], the half-maximal inhibitory concentration (IC50) on VEGFR2 came out at 0.1 µM. For the same compound, the “BaF3-TEL-FGFR3 prolif (μM)” value on Ba/F3-TEL-FGFR3 cells (% at 0.100 μM) is on record as 50.0% at 0.100 μM. Moreover, the inhibition at 10 µM in experiment [1] came to 5%. The minimal effective concentration in experiment [2] was 1 µM. For the same compound, the “FGFR3 IC50(μM) or % I” value on FGFR3 (% I at 0.003 (unit not given)) is 45.0% at 0.003.

`CC(C)Oc1cc(NC(=O)NCC(F)(F)F)cc(-c2cnc3cc(OCCCO)ccn23)c1` [Compound F-18, 1-{3-[7-(3-Hydroxy-propoxy)-imidazo[1,2-a]pyridin-3-yl]-5-isopropoxy-phenyl}-3-(2,2,2-trifluoro-ethyl)-urea]: the IC50 on VEGFR2 came out at 0.67 µM; on FGFR3, 0.02 µM. Also, on Ba/F3-TEL-FGFR3 cells, the GI50 came out at 440 nM. The inhibition at 10 µM in experiment [1] came to 54%. Moreover, the minimal effective concentration in experiment [2] is 5 µM.

Take `CCOc1cc(NC(=O)NCC(F)(F)F)cc(-c2cnc3cc(-c4nnc(C)o4)ccn23)c1` [Compound F-15, 1-{3-Ethoxy-5-[7-(5-methyl-[1,3,4]oxadiazol-2-yl)-imidazo[1,2-a]pyridin-3-yl]-phenyl}-3-(2,2,2-trifluoro-ethyl)-urea]: the values for the IC50 at VEGFR2 and at FGFR3 were 0.34 µM and 0.025 µM, respectively. At Ba/F3-TEL-FGFR3 cells, the GI50 stood at 370 nM. The inhibition at 10 µM in experiment [1] was 23%. Besides, in experiment [2], the minimal effective concentration turned out to be 10 µM.

Regarding `Cc1nc(-c2ccn3c(-c4cc(NC(=O)NCC(F)(F)F)cc(OC(C)C)c4)cnc3c2)ccc1F` [Compound F-3, 1-{3-[7-(5-Fluoro-6-methyl-pyridin-2-yl)-imidazo[1,2-a]pyridin-3-yl]-5-isopropoxy-phenyl}-3-(2,2,2-trifluoro-ethyl)-urea], the values for the IC50 at VEGFR2 and on FGFR3 were 0.48 µM and 0.0087 µM, respectively. The GI50 on Ba/F3-TEL-FGFR3 cells worked out at 330 nM. Moreover, in experiment [1], the pIC50 was approximately 5.10. In addition, the minimal effective concentration in experiment [2] was more than 10 µM.

As to `CC(C)Oc1cc(NC(=O)NCC(F)(F)F)cc(-c2cnc3cc(-c4nccc(C(C)(C)CO)n4)ccn23)c1` [Compound F-27, 1-(3-{7-[4-(2-Hydroxy-1,1-dimethylethyl)-pyrimidin-2-yl]-imidazo[1,2-a]pyridin-3-yl}-5-isopropoxy-phenyl)-3-(2,2,2-trifluoro-ethyl)-urea], the IC50 was found to be 1.2 µM on VEGFR2 and 0.042 µM on FGFR3. At Ba/F3-TEL-FGFR3 cells, the GI50 came out at 1580 nM. In experiment [1], the inhibition at 3 µM was 50%. In addition, the minimal effective concentration in experiment [2] was more than 10 µM.

For `CC(C)Oc1cc(NC(=O)NCC(F)(F)F)cc(-c2cnc3cc(N4CCC(F)(F)CC4)ccn23)c1` [Compound F-13, 1-{3-[7-(4,4-Difluoro-piperidin-1-yl)-imidazo[1,2-a]pyridin-3-yl]-5-isopropoxy-phenyl}-3-(2,2,2-trifluoro-ethyl)-urea], at VEGFR2 (1 h, % I at 3 μM), the inhibition at 3 µM worked out at 55%. Further, the GI50 on Ba/F3-TEL-FGFR3 cells is 820 nM. Further, in experiment [1], the pIC50 was 5.49. Further, in experiment [2], the minimal effective concentration amounted to 5 µM. Moreover, at FGFR3, the 50% inhibitory concentration (IC50) is 0.061 µM.

For `CC(C)Oc1cc(NC(=O)NCC(F)(F)F)cc(-c2cnc3cc(OCCO)ccn23)c1` [Compound F-17, 1-{3-[7-(2-Hydroxy-ethoxy)-imidazo[1,2-a]pyridin-3-yl]-5-isopropoxy-phenyl}-3-(2,2,2-trifluoro-ethyl)-urea], the IC50 on VEGFR2 was found to be 0.51 µM; at FGFR3 it was 0.017 µM. Further, the GI50 at Ba/F3-TEL-FGFR3 cells worked out at 500 nM. In experiment [1], the inhibition at 10 µM was found to be 0%. In addition, in experiment [2], the minimal effective concentration turned out to be 3 µM.

In the case of `Cc1cn(-c2ccn3c(-c4cc(NC(=O)NCC(F)(F)F)cc(OC(C)C)c4)cnc3c2)cn1` [Compound F-28, 1-{3-Isopropoxy-5-[7-(4-methylimidazol-1-yl)-imidazo[1,2-a]pyridin-3-yl]-phenyl}-3-(2,2,2-trifluoro-ethyl)-urea], the IC50 was determined as 0.077 µM on VEGFR2 and 0.0016 µM at FGFR3. In addition, the GI50 on Ba/F3-TEL-FGFR3 cells worked out at 100 nM. Besides, in experiment [1], the inhibition at 10 µM amounted to 73%. For the same compound, the minimal effective concentration in experiment [2] amounted to 5 µM.

With `CC(C)Oc1cc(NC(=O)NCC(F)(F)F)cc(-c2cnc3cc(-c4ncccn4)ccn23)c1` [Compound F-2, 1-[3-Isopropoxy-5-(7-pyrimidin-2-yl-imidazo[1,2-a]pyridin-3-yl)-phenyl]-3-(2,2,2-trifluoro-ethyl)-urea], the IC50 at VEGFR2 was determined as 1.14 µM; on FGFR3, 0.0144 µM. The GI50 at Ba/F3-TEL-FGFR3 cells is 170 nM. The inhibition at 10 µM in experiment [1] was 33%. In addition, the minimal effective concentration in experiment [2] is more than 10 µM.
